In ChEMBL document CHEMBL4000188, “Synthesis and antimicrobial evaluation of novel analogues of dehydroabietic acid prepared by CH-Activation” (Eur J Med Chem, 2017) one finds solubility, MIC80 and Activity data, which are given here for eight compounds.

As usually defined, the MIC80 is the lowest concentration that inhibits either 80% of growth or 80% of the strains tested, depending on the study. A lower MIC80 goes with higher susceptibility.

Data set [1] can be described thus: Solubility of the compound in DMSO. It counts as physicochemical.
The subject of data set [2] is Staphylococcus aureus. Nature of the data set: Anti-bacterial activity against methicillin-resistant Staphylococcus aureus ATCC 43300 measured after 18 hrs. The conditions noted are these: ATCC 43300, 18 h. It counts as functional.
Data set [3] has as its system Staphylococcus aureus. Put plainly: Anti-bacterial activity against methicillin/oxacillin-resistant Staphylococcus aureus ATCC 43300 at 32 ug/ml measured after 18 hrs. It counts as functional.

In brackets after ≈: the same amount, converted by molar mass. Activity calls are given as the source filed them. The calls are words filed in the database; no cut-off is given here.

Take `COc1ccc(C[C@@]2(C(N)=O)CCC[C@]3(C)c4ccc(C(C)C)cc4CC[C@@H]23)cc1`: the solubility result in data set [1] was “Insoluble”.
`CC(C)c1ccc2c(c1)CC[C@H]1[C@](Cc3ccc(C(=O)O)cc3)(C(N)=O)CCC[C@]21C` came in with an MIC80 against Staphylococcus aureus [2] of 32 µg/mL (≈ 76.3 µM).
As to `Cc1ccc(C[C@@]2(C(N)=O)CCC[C@]3(C)c4ccc(C(C)C)cc4CC[C@@H]23)cc1`, in data set [1], the solubility entry was “Insoluble”.
Regarding `CC(C)c1ccc2c(c1)CC[C@H]1[C@](Cc3ccc(C(F)(F)F)cc3)(C(N)=O)CCC[C@]21C`, the solubility entry in data set [1] is given as “Insoluble”.
Turning to `Cc1ccc(C[C@@]2(C(=O)O)CCC[C@]3(C)c4ccc(C(C)C)cc4CC[C@@H]23)cc1`, in the data set on Staphylococcus aureus [3], the outcome was Active.
In turn, `CN[C@H](CC(C)C)C(=O)N[C@H]1C(=O)N[C@@H](CC(N)=O)C(=O)N[C@H]2C(=O)N[C@H]3C(=O)N[C@H](C(=O)N[C@H](C(=O)O)c4cc(O)cc(O)c4-c4cc3ccc4O)[C@H](O)c3ccc(c(Cl)c3)Oc3cc2cc(c3O[C@@H]2O[C@H](CO)[C@@H](O)[C@H](O)[C@H]2O[C@H]2C[C@](C)(N)[C@H](O)[C@H](C)O2)Oc2ccc(cc2Cl)[C@H]1O` [VANCOMYCIN] had an MIC80 with Staphylococcus aureus [2] of 1 µg/mL (≈ 0.69 µM).
Take `CC(C)c1ccc2c(c1)CC[C@H]1[C@](Cc3ccc(C(F)(F)F)cc3)(C(=O)O)CCC[C@]21C`: the result with Staphylococcus aureus [3] was Active.
On the same count and under the same terms, the same measure for `COc1ccc(C[C@@]2(C(=O)O)CCC[C@]3(C)c4ccc(C(C)C)cc4CC[C@@H]23)cc1`: “Active”.
